# Patent US10124004B2, “Pyrido[3,4-d]pyrimidine derivative and pharmaceutically acceptable salt thereof” (Teijin Pharma Limited, priority 2015, dated 2018)
# Tests used:
# CDK4/cyclin D3 = target: T1, CDK4/cyclin D3 (Homo sapiens, UniProt P11802); experiment: Human CDK4/cyclin D3 inhibitory activity (QS S Assist CDK4/Cyclin D3_FP Kit, IMAP fluorescence polarization); assay type: biochemical; conditions: 50% inhibitory concentration against CDK4/cyclin D3, given as class symbol
# T1 construct: purchased Carna Biosciences, Inc. QS S Assist CDK4/Cyclin D3_FP Kit
# T1 sequence (P11802 whole entry): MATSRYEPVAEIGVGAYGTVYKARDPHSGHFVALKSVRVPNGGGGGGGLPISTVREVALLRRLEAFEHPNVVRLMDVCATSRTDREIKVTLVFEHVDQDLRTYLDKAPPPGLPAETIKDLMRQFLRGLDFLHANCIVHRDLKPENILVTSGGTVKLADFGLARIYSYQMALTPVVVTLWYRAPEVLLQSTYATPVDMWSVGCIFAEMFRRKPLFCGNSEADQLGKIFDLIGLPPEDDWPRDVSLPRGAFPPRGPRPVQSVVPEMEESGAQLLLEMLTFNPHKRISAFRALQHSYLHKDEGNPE
# T1 sequence (P30281 whole entry partner): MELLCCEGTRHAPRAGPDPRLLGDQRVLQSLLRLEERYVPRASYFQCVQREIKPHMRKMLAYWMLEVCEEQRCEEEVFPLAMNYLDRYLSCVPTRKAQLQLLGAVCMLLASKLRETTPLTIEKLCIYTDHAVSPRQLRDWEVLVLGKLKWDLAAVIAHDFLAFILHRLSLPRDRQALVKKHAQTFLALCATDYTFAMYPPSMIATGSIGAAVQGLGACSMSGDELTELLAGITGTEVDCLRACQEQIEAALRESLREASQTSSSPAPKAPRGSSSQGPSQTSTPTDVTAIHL
# Procedure, shortened: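 Percent inhibition, relative to DMSO with and without enzyme, was curve-fitted to give IC50 from polarization (ex 485, em 535 nm). The 45-min room-temperature reaction used 12.5-25 ng/well enzyme, kit ATP/substrate/metal mix, and HEPES pH 7.4 buffer with Tween20 and DTT, followed by 30-min IMAP binding in the dark.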
# CDK2/cyclin A2 = target: T2, CDK2/cyclin A2 (Homo sapiens, UniProt P24941); experiment: Human CDK2/cyclin A2 inhibitory activity (QS S Assist CDK2/Cyclin A2_FP Kit, IMAP fluorescence polarization); assay type: biochemical; conditions: 50% inhibitory concentration against CDK2/cyclin A2, given as class symbol
# T2 construct: purchased Carna Biosciences, Inc. QS S Assist CDK2/Cyclin A2_FP Kit
# Procedure, shortened: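 Kinase activity read as fluorescence polarization (485/535 nm) after phosphorylated fluorescent substrate binds IMAP reagent (30 min, RT, dark). Enzyme (2.5 ng/well) reacted 60 min at RT with ATP/substrate/metal in HEPES pH 7.4 buffer with Tween 20 and DTT; no-enzyme wells define 0% activity; IC50 by curve fit.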
Compound,IC50 (CDK4/cyclin D3) [nM],IC50 (CDK2/cyclin A2) [nM]
CC(C)Nc1nc([C@@H](C)O)cc2cnc(Nc3ccc4c(n3)CCNC4)nc12 [Compound 693],< 10,≥ 100
CC(C)Nc1nc([C@@H](C)O)cc2cnc(Nc3cc4c(cn3)CNCC4)nc12 [Compound 694],10 to 100,≥ 100
CC(C)Nc1nc([C@@H](C)O)cc2cnc(Nc3ccc4c(n3)CNC4)nc12 [Compound 695],< 10,≥ 100
CO[C@H](C)c1cc2cnc(Nc3ccc(N4CC5(CCN5)C4)nn3)nc2c(NC(C)C)n1 [Compound 696],< 10,≥ 100
CC(C)Nc1nc([C@H](C)F)cc2cnc(Nc3ccc(N4CCNCC4)nn3)nc12 [Compound 698],< 10,≥ 100
CC(C)Nc1nc([C@@H](C)O)cc2cnc(Nc3ccc(CN4CCN(C(C)(C)CO)CC4)cn3)nc12 [Compound 700],< 10,≥ 100
CC(C)Nc1nc([C@@H](C)O)cc2cnc(Nc3ccc(N4CCN(C(C)(C)CO)CC4)nn3)nc12 [Compound 701],< 10,≥ 100
CC(C)Nc1nc([C@@H](C)O)cc2cnc(Nc3ccc(N4CCC(OCC(=O)O)CC4)nn3)nc12 [Compound 702],10 to 100,≥ 100
CC(C)Nc1nc([C@@H](C)O)c(Cl)c2cnc(Nc3ccc(N4CCC(OCC(=O)O)CC4)nn3)nc12 [Compound 703],10 to 100,≥ 100
CC(C)Nc1nc([C@@H](C)O)cc2cnc(Nc3ccc(C4CNCCO4)nn3)nc12 (some centres unmarked) [Compound 706],< 10,≥ 100
CC(C)Nc1nc(C(C)O)cc2cnc(Nc3ccc(OC4CCNCC4F)cn3)nc12 (centres unmarked) [Compound 708],< 10,≥ 100
CO[C@H](C)c1cc2cnc(Nc3ccc(N4CCNCC4)nn3)nc2c(NC(C)(C)C)n1 [Compound 709],< 10,≥ 100
CO[C@H](C)c1cc2cnc(Nc3ccc(N4CCNCC4)nn3)nc2c(NCC(C)(C)C)n1 [Compound 710],< 10,≥ 100
COC1CCC(Nc2nc([C@@H](C)OC)cc3cnc(Nc4ccc(N5CCNCC5)nn4)nc23)CC1 (some centres unmarked) [Compound 711],< 10,≥ 100
CO[C@H](C)c1cc2cnc(Nc3ccc(N4CCNCC4)nn3)nc2c(NC2CCCC2)n1 [Compound 712],< 10,≥ 100
CO[C@H](C)c1cc2cnc(Nc3ncc(N4CCNCC4=O)cc3F)nc2c(NC(C)C)n1 [Compound 715],10 to 100,≥ 100
CC(C)Nc1nc([C@@H](C)O)cc2cnc(Nc3cnc(N4CCNCC4=O)cn3)nc12 [Compound 716],10 to 100,≥ 100
COC(=O)CNCCNc1ccc(Nc2ncc3cc([C@@H](C)O)nc(NC(C)C)c3n2)nc1 [Compound 717],10 to 100,≥ 100
CC(C)Nc1nc([C@@H](C)F)cc2cnc(Nc3ccc(N4CCNCC4)nn3)nc12 [Compound 718],10 to 100,≥ 100
C[C@@H](O)c1nc(N[C@H]2CCCOC2)c2nc(Nc3ccc(OCCN(C)C)cn3)ncc2c1Cl [Compound 719],< 10,≥ 100
CC(C)Nc1nc([C@@H](C)O)cc2cnc(Nc3ccc(N4CCN(C[C@H](C)O)CCC4=O)cn3)nc12 [Compound 720],< 10,≥ 100
CC(C)Nc1nc([C@@H](C)O)cc2cnc(Nc3ccc(N4CCN(C[C@@H](C)O)CCC4=O)cn3)nc12 [Compound 721],< 10,≥ 100
CC(C)Nc1nc([C@@H](C)O)cc2cnc(Nc3ccc(N4CCC(NC(C)C)CC4)nn3)nc12 [Compound 722],< 10,≥ 100

Compound,IC50 (CDK4/cyclin D3) [nM],IC50 (CDK2/cyclin A2) [nM]
CC(C)Nc1nc([C@@H](C)O)cc2cnc(Nc3ccc(N4CCC(O)C5(CC5)C4)nn3)nc12 (some centres unmarked) [Compound 723],< 10,≥ 100
CO[C@H](C)c1cc2cnc(Nc3ccc(N4CCNCC4)nn3)nc2c(NC2CCC(C)(C)CC2)n1 [Compound 726],< 10,≥ 100
CO[C@H](C)c1cc2cnc(Nc3ccc(N4CCNCC4)nn3)nc2c(NC2CCC(C)(C)OC2)n1 (some centres unmarked) [Compound 727],< 10,≥ 100
CO[C@H](C)c1cc2cnc(Nc3ccc(N4CCNCC4)nn3)nc2c(SC(C)C)n1 [Compound 728],< 10,≥ 100
CC(C)Nc1nc([C@@H](C)O)cc2cnc(Nc3ccc(N4CCN=CC4=O)cn3)nc12 [Compound 731],< 10,≥ 100
CC(C)Nc1nc([C@@H](C)O)cc2cnc(Nc3ccc(N4CCNC(C(C)C)C4=O)cn3)nc12 (some centres unmarked) [Compound 732],< 10,≥ 100
CC(C)Nc1nc([C@@H](C)O)cc2cnc(Nc3ccc(N4CCNC5(CC5)C4=O)cn3)nc12 [Compound 733],10 to 100,≥ 100
CC(=O)c1cc2cnc(Nc3ccc(OCCN(C)C)cn3)nc2c(NC(C)C)n1 [Compound 734],< 10,≥ 100
CN[C@H]1CC[C@H](Oc2ccc(Nc3ncc4cc([C@@H](C)O)nc(NC(C)C)c4n3)nc2)CC1 [Compound 737],< 10,≥ 100
CN[C@H]1CC[C@@H](Oc2ccc(Nc3ncc4cc([C@@H](C)O)nc(NC(C)C)c4n3)nc2)CC1 [Compound 738],< 10,≥ 100
CNC1CCCC1Oc1ccc(Nc2ncc3cc(C(C)O)nc(NC(C)C)c3n2)nc1 (centres unmarked) [Compound 739],< 10,≥ 100
CC(C)Nc1nc([C@@H](C)O)cc2cnc(Nc3ccc(O[C@H]4CC[C@H](N(C)C)CC4)cn3)nc12 [Compound 740],< 10,≥ 100
CC(C)Nc1nc([C@@H](C)O)cc2cnc(Nc3ccc(O[C@H]4CC[C@@H](N(C)C)CC4)cn3)nc12 [Compound 741],< 10,≥ 100
CC(C)Nc1nc(C(C)O)cc2cnc(Nc3ccc(OC4CCCC4N(C)C)cn3)nc12 (centres unmarked) [Compound 742],< 10,≥ 100
CC(=O)c1cc2cnc(Nc3ccc(N4CCNCC4=O)cn3)nc2c(NC(C)C)n1 [Compound 743],< 10,≥ 100
CC(C)Sc1nc([C@@H](C)O)cc2cnc(Nc3ccc(N4CCNCC4=O)cn3)nc12 [Compound 744],< 10,≥ 100
CC(=O)N1CCN(c2ccc(Nc3ncc4cc([C@@H](C)O)nc(NC(C)C)c4n3)nn2)CC1 [Compound 745],< 10,≥ 100
CC(C)Nc1nc([C@@H](C)O)cc2cnc(Nc3ccc(N4CCN(C(=O)C(C)C)CC4)nn3)nc12 [Compound 746],< 10,≥ 100
CO[C@H](C)c1cc2cnc(Nc3ccc(N4CCN(C(=O)C(C)C)CC4)nn3)nc2c(NC(C)C)n1 [Compound 747],10 to 100,≥ 100
CO[C@H](C)c1cc2cnc(Nc3ccc(N4CCN(C(=O)OC(C)C)CC4)nn3)nc2c(NC(C)C)n1 [Compound 748],10 to 100,≥ 100
CC(C)Nc1nc([C@@H](C)O)c(Cl)c2cnc(Nc3ccc(N4CCCNCC4=O)cn3)nc12 [Compound 750],< 10,≥ 100
C[C@@H](O)c1nc(N[C@H]2CCCOC2)c2nc(Nc3ccc(N4CCNCC4=O)cn3)ncc2c1Cl [Compound 751],< 10,≥ 100
COC[C@H](C)Nc1nc([C@@H](C)O)cc2cnc(Nc3ccc(N4CCNCC4=O)cn3)nc12 [Compound 752],10 to 100,≥ 100
